System: glutamatergic neurons on the Brain-Chip
Test: Calcium imaging (Fluo-4 AM) of neuronal activity on the Brain-Chip
Assay type: cell-based, human
Conditions: NMDA and AMPA receptor inhibition (DAP5 and CNQX respectively), compared to control without inhibitors
Excerpt: FIG. 30A Spontaneous activity was studied by means of calcium imaging, enabling the investigation of neuronal activity of single cells and the network as a whole. Fluo-4 AM, a calcium sensitive fluorescent dye, was loaded onto the cells, and intracellular calcium fluctuations were monitored over time using high-speed imaging. […] FIG. 38A-C Pharmacological Targeting of the Glutamatergic Neurons in the Brain-Chip. […] Scale bars=200 μm. […] FIG. 38A-C Pharmacological Targeting of the Glutamatergic Neurons in the Brain-Chip. […] Scale bars=200 μm.

N#Cc1cc2c(cc1[N+](=O)[O-])=NC(=O)C(=O)N=2 [CNQX, 6-cyano-7-nitroquinoxaline-2,3-dione]
effect on percentage of active neurons: reduced the percentage of active neurons

From patent US12098356B2, “Effects of space travel on human brain cells” (EMULATE, Inc., priority 2017, dated 2024)
